Laboratory results: US20120070392A1, “COMPOSITION FOR INHIBITING ERYTHEMA CAUSED BY ULTRAVIOLET RADIATION CONTAINING A DIPEPTIDE AS ACTIVE INGREDIENT” (priority 2009, published 2012)

Each molecule was assayed on PGE2 production (assay: Inhibition of UVB-induced PGE2 production in cultured human keratinocytes (PGE2 assay kit, calibrated with MTT absorbance)). Details: not given.
Format: cell-based
Protocol: Human keratinocytes were seeded at a density of 1×10^5 cells/well to 6-well plates containing 2 mL of KGM(keratinocyte growth medium, Clonetics, San Diego, Calif., USA) per well and cultured overnight. Then, the medium was replaced with KBM(keratinocyte basal medium) supplemented with 0.1% BSA(bovine serum albumin) and the cells were cultured for an additional 24 hours. Subsequently, the cells were pre-treated for an additional 24 hours with 2 mL of the same medium containing 10 μg/ml of each of the dipeptides listed in Table 1. […] The pre-treated medium was transferred to new 24 well plates and 1 mL of DPBS(Dulbecco's phosphate buffered saline) was added to the cells in each well. During UV irradiation, the transferred medium was stored in a cell incubator. […] At this time, the control was covered with aluminum foil. After the removal of DPBS, the transferred medium was returned to each well. The cells were further cultured for 24 hours, after which 1 mL of the medium was transferred to microcentrifuge tubes. […] The supernatants were then removed and the formazan crystals were solubilized in 1 ml of DMSO(dimethylsulfoxide). One hundred μL of the solution was transferred to each well of 96-well plates and an optical density was determined at 540 nm using an ELISA(enzyme-linked immunosorbent assay) reader. […] The concentration of PGE2 was determined using a PGE2 Assay Kit(KGE004, R&D Systems, Inc., Minneapolis, Minn., USA) according to the manufacturer's instruction. […] After removal of the reaction, the wells were washed five times with 400 μL of wash buffer. To each well was added 200 μL of a substrate solution, followed by incubation for 20 30 min. The reaction was terminated with 50 μL of a stop solution per well before determining absorbance at 450 nm on an ELISA reader. The PGE2 concentration of each sample was calculated from the standard graph and calibrated with the absorbance obtained in the MTT assay to determine their inhibitory activity against PGE2 production.

Molecule | % Inhibition against PGE2 Production
glutamic acid-tyrosine [EY] | 75.9%
glycine-glycine [GG] | 26.1%
methionine-threonine [MT] | 71.2%
tyrosine-glutamine [YQ] | 13.5%
threonine-proline [TP] | 65.7%
phenylalanine-tyrosine [FY] | 88.0%
proline-histidine [PH] | 74.7%
valine-histidine [VH] | 47.6%
glutamic acid-methionine [EM] | 58.4%
serine-tyrosine [SY] | 91.5%
histidine-serine [HS] | 53.2%
alanine-histidine [AH] | 64.7%
aspartic acid-asparagine [DN] | 85.6%
histidine-proline [HP] | 26.3%
methionine-tyrosine [MY] | 91.7%
serine-asparagine [SN] | 49.9%
NCC(=O)O.NCCCC[C@H](N)C(=O)O [GK, glycine-lysine] | 87.0%
serine-valine [SV] | 31.2%
tyrosine-leucine [YL] | 24.7%
asparagine-histidine [NH] | 65.8%
proline-threonine [PT] | 21.7%
proline-phenylalanine [PF] | 32.8%
tyrosine-phenylalanine [YF] | 12.7%
asparagine-tyrosine [NY] | 58.1%
alanine-tyrosine [AY] | 31.8%
methionine-aspartic acid [MD] | 64.8%
threonine-valine [TV] | 43.9%
arginine-proline [RP] | 88.7%
tryptophan-proline [WP] | 68.3%

Same assay, conditions: 10 μg/ml dipeptide, 24 h pre-treatment, human keratinocytes, UVB 100 mJ/cm^2, medium assayed 24 h after irradiation; 0% or lower expressed as zero; 10% or more regarded as effective

Molecule | % Inhibition against PGE2 Production
asparagine-alanine [NA] | 42.0%
serine-alanine [SA] | 51.0%
phenylalanine-histidine [FH] | 39.2%
phenylalanine-phenylalanine [FF] | 70.5%
proline-alanine [PA] | 76.8%
valine-praline [VP] | 50.5%
tryptophan-alanine [WA] | 88.5%
leucine-alanine | 47.2%
histidine-histidine [HH] | 79.8%
histidine-alanine [HA] | 44.1%

Same assay, conditions: 10 μg/ml dipeptide, 24 h pre-treatment, human keratinocytes, UVB 100 mJ/cm^2, medium assayed 24 h after irradiation; […]; 10% or more regarded as effective

Molecule | % Inhibition against PGE2 Production
aspartic acid-isoleucine [DI] | 25.9%
asparagine-glutamine [NQ] | 70.1%
tryptophan-glutamine [WQ] | 88.7%
aspartic acid-tryptophan [DW] | 67.3%
glutamic acid-leucine [EL] | 56.2%
glutamine-aspartic acid [QD] | 66.0%
valine-phenylalanine [VF] | 12.2%
arginine-tryptophan [RW] | 34.9%
alanine-leucine | 48.9%
glutamic acid-lysine [EK] | 76.5%
serine-threonine [ST] | 79.5%
lysine-threonine [KT] | 77.8%
serine-cysteine [SC] | 77.7%
alanine-isoleucine [AI] | 60.1%
alanine-serine [AS] | 72.5%
leucine-cysteine [LC] | 33.3%
aspartic acid-leucine [DL] | 75.8%
threonine-isoleucine [TI] | 36.3%
leucine-arginine [LR] | 52.0%
threonine-serine [TS] | 55.7%
aspartic acid-alanine [DA] | 94.1%
valine-glutamic acid [VE] | 24.8%
isoleucine-lysine [IK] | 71.3%

Molecule | % Inhibition against PGE2 Production
glutamine-asparagine [QN] | 13.9%
glutamic acid-phenylalanine [EF] | 13.3%
glutamic acid-glutamine [EQ] | 79.6%
threonine-aspartic acid [TD] | 77.6%
glutamine-phenylalanine [QF] | 19.0%
cysteine-glutamine [CQ] | 93.9%
leucine-glutamic acid | 92.8%
histidine-tryptophan [HW] | 21.6%
valine-isoleucine [VI] | 51.7%
valine-arginine [VR] | 52.5%
glutamine-tryptophan [QW] | 42.8%
lysine-tryptophan [KW] | 76.9%
leucine-phenylalanine [LF] | 90.2%
NC(=O)CC(N)C(=O)O (stereo not drawn) [NN, asparagine-asparagine] | 48.3%
tryptophan-valine [WV] | 79.6%
leucine-threonine [LT] | 53.4%
serine-leucine [SL] | 81.6%
arginine-cysteine [RC] | 95.1%
aspartic acid-threonine [DT] | 95.8%
asparagine-glutamic acid | 14.5%
aspartic acid-valine [DV] | 30.7%
leucine-valine [LV] | 79.9%
